Experimental data as given in patent publication US20170290774A1, “NEUROKININ-1 RECEPTOR ANTAGONIST COMPOSITION FOR TREATMENT OF DISEASES AND CONDITIONS OF THE RESPIRATORY TRACT” (PLUS VITECH, S.L., priority 2014, published 2017).

Assays:
Type in all cases: in vivo, New Zealand albino rabbits
[1] = Tissue concentration of aprepitant by HPLC after oral or inhaled administration to rabbits; details: oral, 10 to 100 mg/kg per day
TGFβ2 = assay: Immunohistochemistry of TGFβ2 in respiratory tract tissue of sodium hypochlorite aerosol-treated rabbits
Source text: (§1) It is known that the factors TGF-α, TGF-β 1, TGF-β 2, TGF-β 3, SPARC, MMP-3; MMP-7, MMP-9, MMP-11, MMP-13 and MMP-14, TGF-β, NF-kB, EGF, MMP-9, VEGF and TNF-α which are produced by lung cells (pneumocytes, fibroblasts and vascular endothelial cells) and inflammatory cells (macrophages, lymphocytes and polymorphonuclear leukocytes) are involved in the pathophysiology and development of said respiratory tract diseases. […] Herein, 27 New Zealand albino rabbits (New Zealand White Rabbit) with an initial average weight about 3 kg were used in this example. All subjects were administered an aerosol of a solution consisting of a mixture of water and sodium hypochlorite (35 g sodium hypochlorite per liter of water) at a rate of 5 mL of said solution by inhalation three times a day for 7 days (days 1 to 7 of experimentation). Subsequently, from days 3 to 7, a group of 3 rabbits (Group 1) was administered an oral dose of 10 mg/kg body weight per day, another group of 3 rabbits (Group 2) was administered an oral dose of 40 mg/kg body weight per day, a third group (Group 3) was administered an oral dose of 80 mg/kg body weight per day and a fourth group (Group 4) was administered an oral dose of 100 mg/kg body weight per day. […] This mixture was administered as an aerosol by inhalation, also from days 3 to 7, to a group of 3 rabbits (group 5) at a dose of 0.05 mg/kg body weight per day, to another group of three rabbits (Group 6) at a dose of 0.1 mg/kg body weight per day, to another group of three rabbits (Group 7) at a dose of 0.2 mg/kg body weight per day and to another group of three rabbits (Group 8) at a dose of 0.4 mg/kg body weight per day. A placebo consisting only of olive oil was administered from days 3 to 7 to a control group of 3 rabbits (placebo group). In parallel, 3 rabbits were kept under identical conditions but were not administered any treatment nor the aforementioned sodium hypochlorite solution (control group). […] On day 7 of the experiment all animals were euthanized and necropsied. […] Samples were taken at the peripheral level of the lung parenchyma, just below the pleural surface. Tissue samples were also taken from the nasal cavity, pharynx, larynx and bronchi. Immunohistochemistry studies were performed for all samples to evaluate the levels of the markers TGF-α, TGF-β 1, TGF-β 2, TGF-β 3 SPARC, MMP-3; MMP-7, MMP-9, MMP-11, MMP-14, TGF-β, TNF-α and VEGF. In said immunohistochemistry studies, a sample of each sample was dehydrated by treatment with increasing concentrations of ethanol and finally xylene. Subsequently said dried samples were embedded in paraffin, thus creating a block. Said paraffin blocks were cut on a microtome to a thickness of 5 μm, and the resulting sections (slices) were placed on slides suitable for conducting immunohistochemistry techniques. Subsequently, the sections were deparaffinised by immersion in xylene and then rehydrated through immersion in a series of solutions containing decreasing concentrations of ethanol and, finally, water. […] The samples were then allowed to cool to room temperature over 10 minutes. Endogenous peroxidase activity was blocked by treatment with 3% hydrogen peroxide over 30 min at room temperature. […] In order to verify the expression of NK1 receptors, the cell samples were incubated in the presence of anti-NK1 antibodies ([…], Sigma-Aldrich) diluted 1:1000 at 4° C. overnight. After this time they were washed in 0.05M Tris buffer at room temperature. Subsequently, Envision System-HRP (Dako) reagents were added for 30 min at room temperature. Once this time had expired, the samples were again washed with 0.05 M Tris buffer, and immunoreactivity was visualized by light microscopy with a chromogenic solution with 3,3'-diaminobenzidine (DAB+; Dako, USA). In order to differentiate the cell nuclei, these were lightly stained with haematoxylin. Samples that were not incubated with the primary antibody, but wherein this was replaced by a non-immune serum were used as negative controls. […]

TNF-α = assay: Immunohistochemistry of TNF-α in respiratory tract tissue of sodium hypochlorite aerosol-treated rabbits
Source text: as §1

[2] = bronchial tissue, Group 1, oral 10 mg/kg per day
[3] = bronchial tissue, Group 2, oral 40 mg/kg per day
[4] = bronchial tissue, Group 3, oral 80 mg/kg per day
[5] = bronchial tissue, Group 4, oral 100 mg/kg per day
[6] = laryngeal tissue, Group 1, oral 10 mg/kg per day
[7] = laryngeal tissue, Group 2, oral 40 mg/kg per day
[8] = laryngeal tissue, Group 3, oral 80 mg/kg per day
[9] = laryngeal tissue, Group 4, oral 100 mg/kg per day
[10] = laryngeal tissue, Group 5, inhalation 0.05 mg/kg per day
[11] = laryngeal tissue, Group 6, inhalation 0.1 mg/kg per day
[12] = laryngeal tissue, Group 7, inhalation 0.2 mg/kg per day
[13] = laryngeal tissue, Group 8, inhalation 0.4 mg/kg per day
[14] = lung tissue, Group 1, oral 10 mg/kg per day
[15] = lung tissue, Group 2, oral 40 mg/kg per day
[16] = lung tissue, Group 3, oral 80 mg/kg per day
[17] = lung tissue, Group 4, oral 100 mg/kg per day
[18] = lung tissue, Group 5, inhalation 0.05 mg/kg per day
[19] = lung tissue, Group 6, inhalation 0.1 mg/kg per day
[20] = lung tissue, Group 7, inhalation 0.2 mg/kg per day
[21] = lung tissue, Group 8, inhalation 0.4 mg/kg per day
[22] = nasal cavity tissue, Group 1, oral 10 mg/kg per day
[23] = nasal cavity tissue, Group 2, oral 40 mg/kg per day
[24] = nasal cavity tissue, Group 3, oral 80 mg/kg per day
[25] = nasal cavity tissue, Group 4, oral 100 mg/kg per day
[26] = nasal cavity tissue, Group 5, inhalation 0.05 mg/kg per day
[27] = nasal cavity tissue, Group 6, inhalation 0.1 mg/kg per day
[28] = nasal cavity tissue, Group 7, inhalation 0.2 mg/kg per day
[29] = nasal cavity tissue, Group 8, inhalation 0.4 mg/kg per day
[30] = pharyngeal tissue, Group 1, oral 10 mg/kg per day
[31] = pharyngeal tissue, Group 2, oral 40 mg/kg per day
[32] = pharyngeal tissue, Group 3, oral 80 mg/kg per day
[33] = pharyngeal tissue, Group 4, oral 100 mg/kg per day
[34] = pharyngeal tissue, Group 5, inhalation 0.05 mg/kg per day
[35] = pharyngeal tissue, Group 6, inhalation 0.1 mg/kg per day
[36] = pharyngeal tissue, Group 7, inhalation 0.2 mg/kg per day
[37] = pharyngeal tissue, Group 8, inhalation 0.4 mg/kg per day

## C[C@@H](OC1OCCN(Cc2nc(=O)[nH][nH]2)C1c1ccc(F)cc1)c1cc(C(F)(F)F)cc(C(F)(F)F)c1 (stereo in doubt) [Aprepitant, 5-([(2R,3S)-2-((R)-1-[3,5-bis(trifluoromethyl)phenyl]ethoxy)-3-(4-fluorophenyl)morpholino]methyl)-1H-1,2,4-triazol-3(2H)-one]
[1]
  relationship between dose and concentration in lung tissue: non-linear and not proportional
TGFβ2; [2]
  Percent increase in TGFβ2 with respect to the control group: 1,342.12%
TGFβ2; [3]
  Percent increase in TGFβ2 with respect to the control group: 1,008.32%
TGFβ2; [4]
  Percent increase in TGFβ2 with respect to the control group: 878.34%
TGFβ2; [5]
  Percent increase in TGFβ2 with respect to the control group: 457.45%
TGFβ2; bronchial tissue, Group 5
  % Med G5/C: percent increase in marker TGFβ2 with respect to the control group: 1,209.34%
TGFβ2; bronchial tissue, Group 6
  % Med G6/C: percent increase in marker TGFβ2 with respect to the control group: 878.45%
TGFβ2; bronchial tissue, Group 7
  % Med G7/C: percent increase in marker TGFβ2 with respect to the control group: 328.45%
TGFβ2; bronchial tissue, Group 8
  % Med G8/C: percent increase in marker TGFβ2 with respect to the control group: 126.45%
TGFβ2; [6]
  Percent increase in TGFβ2 with respect to the control group: 1,789.56%
TGFβ2; [7]
  Percent increase in TGFβ2 with respect to the control group: 1,398.89%
TGFβ2; [8]
  Percent increase in TGFβ2 with respect to the control group: 989.89%
TGFβ2; [9]
  Percent increase in TGFβ2 with respect to the control group: 816.89%
TGFβ2; [10]
  Percent increase in TGFβ2 with respect to the control group: 1,506.89%
TGFβ2; [11]
  Percent increase in TGFβ2 with respect to the control group: 996.89%
TGFβ2; [12]
  Percent increase in TGFβ2 with respect to the control group: 560.38%
TGFβ2; [13]
  Percent increase in TGFβ2 with respect to the control group: 120.23%
TGFβ2; [14]
  Percent increase in TGFβ2 with respect to the control group: 775.23%
TGFβ2; [15]
  Percent increase in TGFβ2 with respect to the control group: 582.05%
TGFβ2; [16]
  Percent increase in TGFβ2 with respect to the control group: 475.25%
TGFβ2; [17]
  Percent increase in TGFβ2 with respect to the control group: 438.55%
TGFβ2; [18]
  Percent increase in TGFβ2 with respect to the control group: 797.78%
TGFβ2; [19]
  Percent increase in TGFβ2 with respect to the control group: 338.44%
TGFβ2; [20]
  Percent increase in TGFβ2 with respect to the control group: 198.92%
TGFβ2; [21]
  Percent increase in TGFβ2 with respect to the control group: 125.88%
TGFβ2; [22]
  Percent increase in TGFβ2 with respect to the control group: 1,838.85%
TGFβ2; [23]
  Percent increase in TGFβ2 with respect to the control group: 1,469.70%
TGFβ2; [24]
  Percent increase in TGFβ2 with respect to the control group: 1,290.84%
TGFβ2; [25]
  Percent increase in TGFβ2 with respect to the control group: 1,151.85%
TGFβ2; [26]
  Percent increase in TGFβ2 with respect to the control group: 1,451.21%
TGFβ2; [27]
  Percent increase in TGFβ2 with respect to the control group: 825.63%
TGFβ2; [28]
  Percent increase in TGFβ2 with respect to the control group: 252.52%
TGFβ2; [29]
  Percent increase in TGFβ2 with respect to the control group: 136.09%
TGFβ2; [30]
  Percent increase in TGFβ2 with respect to the control group: 1,575.67%
TGFβ2; [31]
  Percent increase in TGFβ2 with respect to the control group: 1,235.45%
TGFβ2; [32]
  Percent increase in TGFβ2 with respect to the control group: 980.65%
TGFβ2; [33]
  Percent increase in TGFβ2 with respect to the control group: 780.54%
TGFβ2; [34]
  Percent increase in TGFβ2 with respect to the control group: 1,202.46%
TGFβ2; [35]
  Percent increase in TGFβ2 with respect to the control group: 725.63%
TGFβ2; [36]
  Percent increase in TGFβ2 with respect to the control group: 252.52%
TGFβ2; [37]
  Percent increase in TGFβ2 with respect to the control group: 136.09%
TNF-α; [2]
  Percent increase in TNF-α with respect to the control group: 789.45%
TNF-α; [3]
  Percent increase in TNF-α with respect to the control group: 580.67%
TNF-α; [4]
  Percent increase in TNF-α with respect to the control group: 467.45%
TNF-α; [5]
  Percent increase in TNF-α with respect to the control group: 356.34%
TNF-α; bronchial tissue, Group 5
  % Med G5/C: percent increase in marker TNF-α with respect to the control group: 673.34%
TNF-α; bronchial tissue, Group 6
  % Med G6/C: percent increase in marker TNF-α with respect to the control group: 451.23%
TNF-α; bronchial tissue, Group 7
  % Med G7/C: percent increase in marker TNF-α with respect to the control group: 325.21%
TNF-α; bronchial tissue, Group 8
  % Med G8/C: percent increase in marker TNF-α with respect to the control group: 201.23%
TNF-α; [6]
  Percent increase in TNF-α with respect to the control group: 1,078.45%
TNF-α; [7]
  Percent increase in TNF-α with respect to the control group: 809.99%
TNF-α; [8]
  Percent increase in TNF-α with respect to the control group: 708.73%
TNF-α; [9]
  Percent increase in TNF-α with respect to the control group: 509.87%
TNF-α; [10]
  Percent increase in TNF-α with respect to the control group: 879.34%
TNF-α; [11]
  Percent increase in TNF-α with respect to the control group: 456.34%
TNF-α; [12]
  Percent increase in TNF-α with respect to the control group: 323.12%
TNF-α; [13]
  Percent increase in TNF-α with respect to the control group: 150.34%
TNF-α; [14]
  Percent increase in TNF-α with respect to the control group: 859.73%
TNF-α; [15]
  Percent increase in TNF-α with respect to the control group: 685.01%
TNF-α; [16]
  Percent increase in TNF-α with respect to the control group: 607.15%
TNF-α; [17]
  Percent increase in TNF-α with respect to the control group: 463.11%
TNF-α; [18]
  Percent increase in TNF-α with respect to the control group: 980.46%
TNF-α; [19]
  Percent increase in TNF-α with respect to the control group: 470.69%
TNF-α; [20]
  Percent increase in TNF-α with respect to the control group: 218.38%
TNF-α; [21]
  Percent increase in TNF-α with respect to the control group: 151.28%
TNF-α; [22]
  Percent increase in TNF-α with respect to the control group: 1,411.41%
TNF-α; [23]
  Percent increase in TNF-α with respect to the control group: 842.93%
TNF-α; [24]
  Percent increase in TNF-α with respect to the control group: 658.65%
TNF-α; [25]
  Percent increase in TNF-α with respect to the control group: 418.29%
TNF-α; [26]
  Percent increase in TNF-α with respect to the control group: 1,495.60%
TNF-α; [27]
  Percent increase in TNF-α with respect to the control group: 736.83%
TNF-α; [28]
  Percent increase in TNF-α with respect to the control group: 151.81%
TNF-α; [29]
  Percent increase in TNF-α with respect to the control group: 122.23%
TNF-α; [30]
  Percent increase in TNF-α with respect to the control group: 1,357.32%
TNF-α; [31]
  Percent increase in TNF-α with respect to the control group: 987.63%
TNF-α; [32]
  Percent increase in TNF-α with respect to the control group: 789.45%
TNF-α; [33]
  Percent increase in TNF-α with respect to the control group: 418.29%
TNF-α; [34]
  Percent increase in TNF-α with respect to the control group: 1,532.34%
TNF-α; [35]
  Percent increase in TNF-α with respect to the control group: 989.36%
TNF-α; [36]
  Percent increase in TNF-α with respect to the control group: 298.67%
TNF-α; [37]
  Percent increase in TNF-α with respect to the control group: 167.34%
